Converted amounts (≈) assume the structure as drawn.
Tests used:
Assay in all cases: In vitro antibacterial activity, MIC by agar dilution method
Assay type in all cases: cell-based
[1] = test system: E. coli 1507E; conditions: Escherichia coli, 1507E, read-out: In vitro Antibacterial Activity, MIC
Procedure: (§1) The typical examples of the present compounds were tested for antimicrobial activity in vitro against twenty strains of Gram-positive and Gram-negative microorganisms.
(§2) The numerals in the table 1 show minimum inhibitory concentrations(MIC in µg/ml). The minimum inhibitory concentrations were determined according to the agar dilution method recommended by Japan Society of Chemotherapy[Chemotherapy., 29, 76 (1981)].

[2] = test system: E. coli DC 0; conditions: Escherichia coli, DC0, read-out: In vitro Antibacterial Activity, MIC
Procedure: as §1, §2

[3] = test system: E. coli DC 2; conditions: Escherichia coli, DC2, read-out: In vitro Antibacterial Activity, MIC
Procedure: as §1, §2

[4] = test system: E. coli TEM; conditions: Escherichia coli, read-out: In vitro Antibacterial Activity, MIC
Procedure: as §1, §2

[5] = test system: K. oxytoca 1082E; conditions: Klebsiella oxytoca, 1082E, read-out: In vitro Antibacterial Activity, MIC
Procedure: as §1, §2

[6] = test system: P. aeruginosa 1592E; conditions: Pseudomonas aeruginosa, 1592E, read-out: In vitro Antibacterial Activity, MIC
Procedure: as §1, §2

[7] = test system: P. aeruginosa 1771M; conditions: Pseudomonas aeruginosa, 1771M, read-out: In vitro Antibacterial Activity, MIC
Procedure: as §1, §2

[8] = test system: P. aeruginosa 1771; conditions: Pseudomonas aeruginosa, 1771, read-out: In vitro Antibacterial Activity, MIC
Procedure: as §1, §2

[9] = test system: P. aeruginosa 9027; conditions: Pseudomonas aeruginosa, 9027, read-out: In vitro Antibacterial Activity, MIC
Procedure: as §1, §2

[10] = test system: S. aureus 285; conditions: Staphylococcus aureus, 285, read-out: In vitro Antibacterial Activity, MIC
Procedure: as §1, §2

[11] = test system: S. aureus 503; conditions: Staphylococcus aureus, 503, read-out: In vitro Antibacterial Activity, MIC
Procedure: as §1, §2

[12] = test system: S. aureus SG 511; conditions: Staphylococcus aureus, SG511, read-out: In vitro Antibacterial Activity, MIC
Procedure: as §1, §2

[13] = test system: S. faecium MD 86; conditions: Enterococcus faecium, MD86, read-out: In vitro Antibacterial Activity, MIC
Procedure: as §1, §2

[14] = test system: S. pyogenes A 308; conditions: Streptococcus pyogenes, A308, read-out: In vitro Antibacterial Activity, MIC
Procedure: as §1, §2

[15] = test system: S. pyogenes A 77; conditions: Streptococcus pyogenes, A77, read-out: In vitro Antibacterial Activity, MIC
Procedure: as §1, §2

[16] = test system: E. cloacae 1321E; conditions: Enterobacter cloacae, 1321E, read-out: In vitro Antibacterial Activity, MIC
Procedure: as §1
(§3) The minimum inhibitory concentrations were determined according to the agar dilution method recommended by Japan Society of Chemotherapy[Chemotherapy., 29, 76 (1981)].

[17] = test system: E. cloacae P99; conditions: Enterobacter cloacae, P99, read-out: In vitro Antibacterial Activity, MIC
Procedure: as §1, §3

[18] = test system: E. coli O 55; conditions: Escherichia coli, O55, read-out: In vitro Antibacterial Activity, MIC
Procedure: as §1, §3

[19] = test system: K. aerogenes 1522E; conditions: Klebsiella aerogenes, 1522E, read-out: In vitro Antibacterial Activity, MIC
Procedure: as §1, §3

[20] = test system: S. typhimurium; conditions: Salmonella enterica, TYPHIMURIUM, read-out: In vitro Antibacterial Activity, MIC
Procedure: as §1, §3

SMILES	MIC [1]	MIC [2]	MIC [3]	MIC [4]	MIC [5]	MIC [6]	MIC [7]	MIC [8]	MIC [9]	MIC [10]	MIC [11]	MIC [12]	MIC [13]	MIC [14]	MIC [15]	MIC [16]	MIC [17]	MIC [18]	MIC [19]	MIC [20]
CSCC1CCN(c2cc3c(cc2F)c(=O)c(C(=O)O)cn3C2CC2)C1 (stereo not shown) [Example 1, 1-cyclopropyl-6-fluoro-7-(3-methylthiomethylpyrrolidinyl)-1,4-dihydro-4-oxo-3-quinolinecarboxylic acid]	1.56 µg/mL (≈ 4.15 µM)	3.12 µg/mL (≈ 8.3 µM)	0.781 µg/mL (≈ 2.07 µM)	0.391 µg/mL (≈ 1.04 µM)	0.098 µg/mL (≈ 0.26 µM)	1.56 µg/mL (≈ 4.15 µM)	0.391 µg/mL (≈ 1.04 µM)	0.781 µg/mL (≈ 2.07 µM)	1.56 µg/mL (≈ 4.15 µM)	0.025 µg/mL (≈ 0.0664 µM)	0.025 µg/mL (≈ 0.0664 µM)	0.025 µg/mL (≈ 0.0664 µM)	0.781 µg/mL (≈ 2.07 µM)	1.56 µg/mL (≈ 4.15 µM)	0.781 µg/mL (≈ 2.07 µM)	0.195 µg/mL (≈ 0.518 µM)	0.195 µg/mL (≈ 0.518 µM)	0.025 µg/mL (≈ 0.0664 µM)	0.391 µg/mL (≈ 1.04 µM)	0.195 µg/mL (≈ 0.518 µM)
CSCC1CCN(c2c(F)c(N)c3c(=O)c(C(=O)O)cn(C4CC4)c3c2F)C1 (stereo not shown) [Example 9, 1-cyclopropyl-5-amino-6,8-difluoro-7-(3-methylthiomethylpyrrolidinyl)-1,4-dihydro-4-oxo-3-quinolinecarboxylic acid]	0.025 µg/mL (≈ 0.0611 µM)	3.12 µg/mL (≈ 7.63 µM)	0.195 µg/mL (≈ 0.476 µM)	0.025 µg/mL (≈ 0.0611 µM)	1.56 µg/mL (≈ 3.82 µM)	3.12 µg/mL (≈ 7.63 µM)	0.781 µg/mL (≈ 1.91 µM)	1.56 µg/mL (≈ 3.82 µM)	3.12 µg/mL (≈ 7.63 µM)	0.025 µg/mL (≈ 0.0611 µM)	0.007 µg/mL (≈ 0.0171 µM)	0.004 µg/mL (≈ 0.00977 µM)	1.2 µg/mL (≈ 2.92 µM)	0.195 µg/mL (≈ 0.476 µM)	0.391 µg/mL (≈ 0.955 µM)	0.049 µg/mL (≈ 0.12 µM)	0.049 µg/mL (≈ 0.12 µM)	0.013 µg/mL (≈ 0.0317 µM)	3.12 µg/mL (≈ 7.63 µM)	0.049 µg/mL (≈ 0.12 µM)

— patent publication EP0500835B1, “A NOVEL QUINOLONE CARBOXYLIC ACID DERIVATIVE” (DAEWOONG PHARMACEUTICAL CO., LTD., priority 1990, dated 1992)
